Common to all, as to type: functional, organism-based
For assay [1], the species on record is Mus musculus. In words: Antiallodynic activity in Swiss Webster mouse assessed as protection against carrageenan-induced tactile allodynia at 30 ug/paw local peripheral pretreatment with compound for 15 mins followed by carrageenan challenge and measured after 6 hrs. As to conditions: dose 30.0 µg, time 375.0 min.
The test system of assay [2] is Mus musculus. In words: Antiallodynic activity in local peripheral dosed Swiss Webster mouse assessed as protection against carrageenan-induced tactile allodynia measured every 3 days for 15 days. As to conditions: dose 3-30 µg, time 15.0 day.
The species named for assay [3] is Mus musculus. In words: Antiallodynic activity in Swiss Webster mouse assessed as protection against carrageenan-induced tactile allodynia at 30 ug/paw pretreated with flumazenil for 15 mins followed by compound addition and measured after 6 hrs. Particulars: dose 30.0 µg.
Assay [4] deals with Mus musculus. In words: Antiinflammatory activity in Swiss Webster mouse assessed as protection against carrageenan-induced paw edema at 30 ug/paw pretreated with naloxone for 15 mins followed by compound addition and measured after 6 hrs. As to conditions: dose 30.0 µg.
For assay [5], the system named is Mus musculus. In words: Antiinflammatory activity in Swiss Webster mouse assessed as reversal of carrageenan-induced paw edema at 30 ug/paw local peripheral administration pretreated with carrageenan for 6 days followed by compound addition and measured 6 hrs post compound treatment. As to conditions: dose 30.0 µg.
Assay [6] relates to Mus musculus. In words: Antiinflammatory activity in Swiss Webster mouse assessed as protection against carrageenan-induced paw edema at 30 ug/paw, it. Particulars: dose 30.0 µg.
For assay [7], the species on record is Mus musculus. In words: Antiallodynic activity in hyperglycemic Swiss Webster mouse model of neuropathic pain assessed as reversal of carrageenan-induced tactile allodynia at 30 ug/paw, it and measured after 6 hrs. Particulars: dose 30.0 µg.
In assay [8] the test system is Mus musculus. In words: Antiinflammatory activity in Swiss Webster mouse assessed as protection against carrageenan-induced paw edema at 30 ug/paw pretreated with ODQ for 15 mins followed by compound addition and measured after 6 hrs. Particulars: dose 30.0 µg.
In assay [9] the test system is Mus musculus. In words: Antiinflammatory activity in Swiss Webster mouse assessed as protection against carrageenan-induced paw edema at 30 ug/paw pretreated with glibenclamide for 15 mins followed by compound addition and measured after 6 hrs. As to conditions: dose 30.0 µg.
In assay [10] the test system is Mus musculus. In words: Antiinflammatory activity in Swiss Webster mouse assessed as protection against carrageenan-induced paw edema at 30 ug/paw local peripheral administration and measured after 4 to 6 hrs. As to conditions: dose 30.0 µg, time 4-6 hrs.
Assay [11] has as its system Mus musculus. In words: Antiinflammatory activity in local peripheral dosed Swiss Webster mouse assessed as protection against carrageenan-induced paw edema pretreated with compound for 15 mins followed by carrageenan challenge and measured after 6 hrs. Particulars: dose 1-30 µg, time 375.0 min.
Assay [12] deals with Mus musculus. In words: Antiinflammatory activity in Swiss Webster mouse assessed as protection against carrageenan-induced paw edema at 3 to 30 ug/paw local peripheral pretreatment with compound for 15 mins before carrageenan challenge and measured every 3 days for 15 days. As to conditions: dose 3-30 µg, time 15.0 day.
The subject of assay [13] is Mus musculus. In words: Antiallodynic activity in it dosed hyperglycemic Swiss Webster mouse model of neuropathic pain assessed as reversal of carrageenan-induced tactile allodynia measured after 6 hrs. Particulars: dose 3-30 µg.
For assay [14], the system named is Mus musculus. In words: Antiinflammatory activity in Swiss Webster mouse assessed as protection against carrageenan-induced paw edema at 30 ug/paw pretreated with methiothepin for 15 mins followed by compound addition and measured after 6 hrs. As to conditions: dose 30.0 µg.
For assay [15], the species on record is Mus musculus. In words: Antiallodynic activity in Swiss Webster mouse assessed as protection against carrageenan-induced tactile allodynia at 30 ug/paw pretreated with methiothepin for 15 mins followed by compound addition and measured after 6 hrs. Particulars: dose 30.0 µg.
For assay [16], the system named is Mus musculus. In words: Antiinflammatory activity in Swiss Webster mouse assessed as protection against carrageenan-induced paw edema at 30 ug/paw local peripheral pretreatment with compound for 15 mins followed by carrageenan challenge and measured after 6 hrs. Particulars: dose 30.0 µg, time 375.0 min.
The test system of assay [17] is Mus musculus. In words: Antiallodynic activity in local peripheral dosed Swiss Webster mouse assessed as protection against carrageenan-induced tactile allodynia pretreated with compound for 15 mins followed by carrageenan challenge and measured after 6 hrs. Particulars: dose 1-30 µg, time 375.0 min.
Assay [18] deals with Mus musculus. In words: Antiallodynic activity in it dosed Swiss Webster mouse assessed as protection against carrageenan-induced tactile allodynia.
Assay [19] is filed under the species Mus musculus. In words: Antiallodynic activity in Swiss Webster mouse assessed as protection against carrageenan-induced tactile allodynia at 30 ug/paw pretreated with l-NAME for 15 mins followed by compound addition and measured after 6 hrs. Particulars: dose 30.0 µg.
Assay [20] is filed under the species Mus musculus. In words: Antiallodynic activity in Swiss Webster mouse assessed as protection against carrageenan-induced tactile allodynia at 30 ug/paw pretreated with glibenclamide for 15 mins followed by compound addition and measured after 6 hrs. Particulars: dose 30.0 µg.
The species entered for assay [21] is Mus musculus. In words: Antiallodynic activity in Swiss Webster mouse assessed as protection against carrageenan-induced tactile allodynia at 30 ug/paw pretreated with ODQ for 15 mins followed by compound addition and measured after 6 hrs. Particulars: dose 30.0 µg.
For assay [22], the system named is Mus musculus. In words: Antiallodynic activity in hyperglycemic Swiss Webster mouse model of neuropathic pain assessed as reversal of carrageenan-induced tactile allodynia at 30 ug/paw local peripheral administration and measured after 6 hrs. Particulars: dose 30.0 µg.
For assay [23], the species on record is Mus musculus. In words: Antiallodynic activity in Swiss Webster mouse assessed as protection against carrageenan-induced tactile allodynia at 30 ug/paw pretreated with naloxone for 15 mins followed by compound addition and measured after 6 hrs. As to conditions: dose 30.0 µg.
Assay [24] concerns Mus musculus. In words: Antiinflammatory activity in Swiss Webster mouse assessed as protection against carrageenan-induced paw edema at 30 ug/paw pretreated with l-NAME for 15 mins followed by compound addition and measured after 6 hrs. As to conditions: dose 30.0 µg.
The test system of assay [25] is Mus musculus. In words: Antiallodynic activity in Swiss Webster mouse assessed as reversal of carrageenan-induced tactile allodynia at 30 ug/paw local peripheral administration pretreated with carrageenan for 6 days followed by compound addition and measured 6 hrs post compound treatment. As to conditions: dose 30.0 µg.
For assay [26], the system named is Mus musculus. In words: Antiallodynic activity in local peripheral dosed hyperglycemic Swiss Webster mouse model of neuropathic pain assessed as reversal of carrageenan-induced tactile allodynia measured after 6 hrs. As to conditions: dose 3-30 µg.
In assay [27] the test system is Mus musculus. In words: Antiinflammatory activity in Swiss Webster mouse assessed as protection against carrageenan-induced paw edema at 30 ug/paw pretreated with flumazenil for 15 mins followed by compound addition and measured after 6 hrs. As to conditions: dose 30.0 µg.

Consider three molecules from ChEMBL document CHEMBL4837182, “Pharmacological Analysis of the Anti-inflammatory and Antiallodynic Effects of Zinagrandinolide E from Zinnia grandiflora in Mice” (J Nat Prod, 2021).

The structures appear in SMILES notation. The source made the active and inactive calls. No cut-off for these calls is given here.

As for `C=C[C@@]1(C)[C@H]2OC(=O)C(=C)[C@H]([C@@H]2OC(=O)/C(C)=C\C)[C@H](OC(=O)C(C)C)[C@@H]1C(=C)C(=O)O`, the outcome in the assay filed under Mus musculus [1], with Mus musculus [5], in the assay listed under Mus musculus [7], in the assay with Mus musculus [10], with Mus musculus [16] and with Mus musculus [22] was Active. Besides, the result in the assay with Mus musculus [25] was Active. Moreover, the Activity entry in the assay with Mus musculus [2], with Mus musculus [11], in the assay on Mus musculus [13], with Mus musculus [17], in the assay on Mus musculus [18] and with Mus musculus [26] was “Dose-Dependent Effect” in each case. Further, the result in the assay filed under Mus musculus [3], in the assay with Mus musculus [4], in the assay on Mus musculus [6], with Mus musculus [8], in the assay on Mus musculus [9] and with Mus musculus [12] was inactive. Moreover, the outcome in the assay on Mus musculus [14], in the assay listed under Mus musculus [15], in the assay listed under Mus musculus [19], in the assay filed under Mus musculus [20], in the assay listed under Mus musculus [21] and in the assay listed under Mus musculus [23] was inactive. Moreover, the outcome in the assay with Mus musculus [24] and in the assay with Mus musculus [27] was inactive.
`CC(C)C[C@H](CN)CC(=O)O`: the result in the assay listed under Mus musculus [7] was Active. Also, in the assay on Mus musculus [22], the outcome was inactive.
On to `O=C(O)Cc1ccccc1Nc1c(Cl)cccc1Cl`, for which the result in the assay listed under Mus musculus [1], with Mus musculus [10] and with Mus musculus [16] was Active. Besides, the result in the assay with Mus musculus [5] and in the assay with Mus musculus [25] was inactive.
